The text below walks through data of patent publication US10226514B2, “Methods and compositions for reducing blood glucose levels” (The Children's Medical Center Corporation, priority 2011, dated 2019).

“Also recorded” adds a separate entry of the source.

For experiment [1], the system named is XBP1s. Nature of the experiment: XBP1s protein levels in Ad-XBP1s-infected MEFs (western blot). It is filed as cell-based, mouse. As to the method:
(§1) MEF cells were from American Type Tissue Collection (ATCC). These cells were grown in Dulbecco's Modified Eagel Medium (DMEM) supplemented with 10% fetal bovine serum (FBS), 10 U/ml penicillin and 1 μg/ml streptomycin at 37° C. and 5% CO2. Fao cells were maintained in RPMI 1640 medium (Invitrogen) supplemented with 10% fetal bovine serum (FBS), 10 U/ml penicillin and 1 μg/ml streptomycin.
(§2) Adenovirus expressing XBP1s T48A, XBP1s S61A, XBP1s T48A/S61A and MKK6Glu were produced with ViraPower Adenoviral Expression System (Invitrogen) according to manufacturer's instruction. Briefly, pAD-XBP1s T48A, pAD-XBP1s S61A, pAd-XBP1s T48A/S61A and pAd-MKK6Glu were linearized by restriction endonuclease digestion with PacI and transfected to 293A cells by Lipofectamine. The media was changed with fresh media every other day until the cytopathic effect was observed. When cytopathic effect reached to 80%, cells were collected by centrifugation. The pellet was resuspended in PBS and subjected to freezing and thawing cycles at −80° C. and 37° C. for 4 times. The supernatant containing the virus was prepared by centrifugation at 4,000 rpm for 20 min at room temperature. Ad-XBP s and Ad-Cre were generated as described previously (Ozcan, L., et al. (2009) Cell metabolism 9:35-51). For infection, cells were incubated with adenovirus in reduced volume of medium containing 1% FBS and antibiotics. Cells were gently rocked every 15 min for 1 h to increase efficiency of infection, and then fresh medium were added and cells were incubated for additional 15 h or 23 h.
Cells were lysed in lysis buffer (25 mM Tris-HCl, pH 7.4; 10 mM NaF; 10 mM Na4P207; 2 mM Na3VO4; 1 mM EGTA; 1 mM EDTA; 1% NP-40; 10 μg/ml Leupeptin; 10 μg/ml Aprotinin; 1 mM PMSF and 20 nM Okadaic acid). After 20 min-rotation at 4° C., cell lysates were centrifuged at 13,200 rpm for 20 min at 4° C. Supernatants were collected and protein concentration was quantified by using Protein Assay Kit (Bio-Rad). The concentrations of protein were normalized with lysis buffer to have equivalent amounts of protein and volume. Protein was denatured by boiling at 100° C. for 5 min in Laemmli buffer. The lysates were cooled to room temperature before loading for western blot analysis.
Western blot analysis was performed as previously described (Ozcan, L., et al. (2009) Cell metabolism 9:35-51). Samples from cell lysates or tissue lysates were resolved by SDS-PAGE and then transferred to polyvinylidene fluoride (PVDF) membrane. After 1 h blocking at room temperature using 10% blocking reagent (Roche), membrane was incubated overnight with primary antibody in Tris-buffered saline solution/Tween (TBST) containing 10% blocking reagent at 4° C. After the incubation, membrane was washed three times in TBST and incubated with secondary antibody for 1 h at room temperature. After three-time washing in TBST, membrane was developed using a chemiluminescence assay system (Roche) and exposed to Kodak films. Relative protein levels were quantified by Image J program.
Background: Immunoblotting shows a protein as a band on a membrane.

For experiment [2], the system named is XBP1s. Nature of the experiment: XBP1s protein degradation after cycloheximide. Format: cell-based, mouse. The settings on record: anisomycin 25 ng/ml two hours, then cycloheximide 10 μg/ml, vs vehicle. As to the method:
MEF cells were infected with Ad-XBP1s. After 24 h post-infection, cells were treated with anisomycin at 25 ng/ml or vehicle (DMSO) for 2 h. Translation […] inhibitor cycloheximide (10 μg/ml, Sigma) was added to the medium. Cells were flash frozen in liquid nitrogen at various time points. Protein levels were determined via immunoblotting.

The test system of a further experiment is p38 MAPK. In words: p38 MAPK phosphorylation in anisomycin-treated knock-out cells. It is filed as cell-based. An excerpt:
It is known that MAPK kinase kinase (MKK) 4 and 7 are upstream kinases responsible for JNK activation (Tournier, C., et al. (2001) Genes Dev 15:1419-1426; Brancho, D., et al. (2003) Genes Dev 17:1969-1978) and anisomycin or TNFα cannot activate JNK in MKK4 and 7 double knock out cells (MKK4,7^−/−) (Tournier, C., et al. (2001) Genes Dev 15:1419-1426; Schaeffer, H. J. & Weber, M. J. (1999) Mol Cell Biol 19:2435-2444). In order to determine whether XBP1s can be regulated by anisomycin treatment in MKK4,7^−/− cells, these cells, along with their controls, were treated with anisomycin after XBP is expression. […] Furthermore, the experiments were repeated in JNK1,2^−/− and MKK4,7^−/− cells with TNFα. […] Finally, an MKK7-JNK1 fusion protein, previously shown to be a specific activator of JNK (Lei, K., et al. (2002) Mol Cell Biol 22:4929-4942), was used to investigate whether activation of JNK alone can have effect on XBP1s.

The subject of experiment [3] is XBP1s. In words: XBP1s levels in Ad-XBP1s-infected Fao cells. Format: cell-based. The settings on record: Ad-XBP1s-infected Fao cells (rat hepatoma). As for the experimental part:
as §1
as §2, with “Ad-XBP s and Ad-Cre were generated as described previously (Ozcan, L., et al. (2009) Cell metabolism 9:35-51). For infection, cells were incubated with adenovirus in reduced volume of medium containing 1% FBS and antibiotics. Cells were gently rocked every 15 min for 1 h to increase efficiency of infection, and then fresh medium were added and cells were incubated for additional 15 h or 23 h.” left out
Western blot analysis was performed as previously described (Ozcan, L., et al. (2009) Cell metabolism 9:35-51). […] Relative protein levels were quantified by Image J program.

Experiment [4] deals with XBP1s. In words: XBP1s phosphorylation at Thr48 and Ser61 in cells (MS/MS, phospho-specific antibodies). The settings on record: anisomycin 25 ng/ml. It is filed as cell-based, mouse. As to the method:
MEFs were infected with flag-tagged XBP1s expressing adenovirus and treated with anisomycin (25 ng/ml) for 2 h. Cells were washed with ice-cold PBS and lysed with RIPA buffer (50 mM Tris-HCl, pH 7.5; 2 mM EGTA; 0.3% CHAPS; 100 mM NaF; 10 mM Na4P2O7; 1 mM Na3VO4; 10 μg/ml Leupeptin; 10 μg/ml Aprotinin; 2 mM PMSF and 20 nM Okadaic acid). After overnight incubation with anti-flag antibody, Protein A sepharose beads were added for additional 2 h at 4° C. Immunoprecipates were washed three times with RIPA buffer containing 150 mM NaCl and boiled for 5 min in 2× Laemmli buffer for elution of immunoprecipitated XBP1s. Samples were resolved in SDS-PAGE and stained with Coomassie blue (Bio-Rad). Protein from Coomassie-stained gel bands was digested with trypsin and the resulting peptide mixtures were subjected to microcapillary liquid chomatography tandem mass spectrometry (LC-MS/MS). MS/MS spectra were assigned by searching them with the XBP1s protein sequence using the SEQUEST algorithm.
Similar results were obtained from XBP1s^Ser61 phosphorylation.

`COc1ccc(C[C@H]2NC[C@H](O)[C@H]2OC(C)=O)cc1` [anisomycin]: the XBP1s protein levels entry in the experiment with XBP1s [1] (Ad-XBP1s-infected MEFs, increasing doses, two hours) is “robust increase in XBP1s protein levels”; in the experiment with XBP1s [1] (Ad-XBP1s-infected MK2−/− cells vs control cells), “dramatically reduced”; with XBP1s [1] (JNK1,2−/− cells) it was “significant increase in XBP is protein”. Moreover, the XBP1s levels result was “no increase in XBP1s levels” in the experiment with XBP1s [1] (Ad-XBP1s-infected MKK3,6−/− cells), “lacked the ability to upregulate XBP1s levels” with XBP1s [1] (Ad-XBP1s-infected p38α−/− cells), “dramatically increased XBP1s levels” with XBP1s [1] (MKK4,7−/− cells) and “dramatically upregulating their XBP1s levels” in the experiment with XBP1s [3]. In addition, the “XBP1s proteins in Ad-LacZ-infected control cells” value in the experiment with XBP1s [1] (up to 25 ng/ml anisomycin) is recorded as “No upregulation of XBP1s proteins”. Further, in the experiment with XBP1s [2], the “degradation rate of XBP1s protein” value is “No differences in the degradation rate of XBP1s protein”. Also, the “p38 MAPK phosphorylation” value in the experiment with p38 MAPK (JNK1,2−/− cells) was “marked increase in p38 MAPK phosphorylation”. The “p38 MAPK activation” value in the experiment on p38 MAPK (MKK4,7−/− cells) is “significantly increased”. Moreover, in the experiment on XBP1s [4], the “phosphorylation of XBP1s at Ser61” value is “increases phosphorylation of XBP1s at Ser61; also recorded: strongly induced phosphorylation of XBP1s at Ser61”. In addition, in the experiment on XBP1s [4], the “phosphorylation of XBP1s at Thr48” value is listed as “greatly increased phosphorylation of the Thr48 residue”.
